Blank lines part the entries; values can stand above or below the compound they belong to.
Experiments:
[1] = system: Drosophila; assay type: in vivo, Drosophila melanogaster
Procedure: In order to monitor fly behavior, five-day old virgin female Canton-S Drosophila melanogaster were cultured at 25° C., 50-60% humidity, 12 hr:12 hr light:dark cycle, on brewer's yeast, dark corn syrup and agar food, following procedures modified from J. Bennett and D. L. van Dyke, Dros. Inform. Serv. 46:160 (1971). Continuous, high-resolution measurement of fly behavior was achieved using an ultrasound activity monitoring system shown in FIG. 1A. Briefly, a 44 kHz standing wave was passed across an independent enclosure containing a single fly. An integrated circuit sampled a portion of each wave as a function of the transmit signal and compared it to the output from the receive signal for the same time-window. When the fly moved its mass within the field, it perturbed the standing wave and the resulting difference was counted as a movement. The output was sampled by a PC at 200 Hz, the data were summed in 2-sec bins and stored for later processing. This system detects very small movements in Drosophila's behavioral repertoire, including fine movements of the head, wings, and limbs.
To monitor rest-activity patterns in large numbers of flies, an infrared Drosophila Activity Monitoring System was used (Trikinetics; described in M. Hamblen et al., J. Neurogen. 3:249 (1986)). To validate the system, flies were visually monitored for a total of 17.75 h (n=7). The number of times the fly crossed the infrared beam was counted in 5-minute bins.
Drugs (caffeine or hydroxyzine) dissolved in food were continuously available to flies beginning in the final hour of the light period.
The increase in rest was not associated with a general impairment of fly behavior. The activity per waking minute was unchanged during the dark period (both during the first hour and the subsequent hours). The total amount of activity during the light period was also unchanged. Furthermore, responsiveness to arousing stimuli was preserved.

[2] = system: Drosophila; experiment: Responsiveness to arousing stimuli in flies given drug; parameters: species or system Drosophila melanogaster; settings: in vivo
Procedure: In order to determine whether periods of rest are associated with increased arousal thresholds, flies were subjected to vibratory stimuli of increasing intensity (0.05 g, 0.1 g, and 6 g). In these experiments, flies were placed in glass tubes (65 mm in length, 5 mm I.D.) maintained on a hard plastic platform above a Grass speaker. The output of the speaker was controlled via a Beckman signal generator and the resulting vibration of the platform was measured with an accelerometer. Each fly received a stimulus each hour (total of 8 stimuli) of constant intensity. The behavioral state at the time of stimulus delivery and the ensuing response were videotaped and scored off-line.

[3] = system: Drosophila; experiment: Grooming control for validating the infrared system: dusting flies; assay type: in vivo, Drosophila melanogaster; settings: flies dusted with the substance
Procedure: Additional controls were used to validate the infrared system. […] It was determined that food deprivation for 1 day increased waking by 50% in Drosophila.

Compound: Cn1c(=O)c2c(ncn2C)n(C)c1=O [caffeine]
motor activity ([1]; drug in food from the final hour of the light period, n=36/dose): increased | amount of rest during the dark period ([1]; drug in food from the final hour of the light period, n=36/dose, p<0.0001, FIG. 3C): decreased in a dose-dependent fashion

total amount of activity during the light period ([1]; in vivo): unchanged | responsiveness to arousing stimuli [2]: preserved
Compound: OCCOCCN1CCN(C(c2ccccc2)c2ccc(Cl)cc2)CC1 (centres unmarked) [hydroxyzine]
rest during the first hour of the dark period ([1]; drug in food from the final hour of the light period, n=40/dose, FIG. 3D): increased in a dose-dependent manner | latency to first dark period rest ([1]; drug in food from the final hour of the light period, n=40/dose, FIG. 3E): decreased

Compound: Reactive Yellow
increase in grooming behavior [3]: 72% | number of infrared crossings [3]: did not reduce

— US20020042054A1, “Vigilance nucleic acids and related diagnostic, screening and therapeutic methods” (priority 1999, published 2002)
